Assay results from ChEMBL document CHEMBL1154575, “Bioactive 12-oleanene triterpene and secotriterpene acids from Maytenus undata” (J Nat Prod, 2000).
Values after ≈ are worked out from the molar mass of the structure shown.

What was measured:
[1] = tested on: Pseudomonas aeruginosa; test: Antibacterial activity against Pseudomonas aeruginosa ATCC 15442 after 48 hrs by agar dilution method; format: functional; details: ATCC 15442, 48 h
[2] = Antiinflammatory activity in rat neonatal brain microglia cells assessed as effect on phorbol-12-myristate-13-acetate-stimulated superoxide release; format: functional, cell-based
[3] = Antiinflammatory activity in rat neonatal brain microglia cells assessed as effect on phorbol-12-myristate-13-acetate-stimulated thromboxane B2 release; format: functional, cell-based
[4] = Toxicity against rat neonatal brain microglia cells assessed as phorbol-12-myristate-13-acetate-stimulated LDH release; format: cell-based
[5] = tested on: Staphylococcus aureus; test: Antibacterial activity against Staphylococcus aureus ATCC 6535 after 48 hrs by agar dilution method; format: functional; details: ATCC 6535, 48 h
[6] = tested on: Staphylococcus aureus; test: Antibacterial activity against methicillin-resistant Staphylococcus aureus ATCC 33591 after 48 hrs by agar dilution method; format: functional; details: ATCC 33591, 48 h

SMILES	MIC [1]	IC50 [2]	IC50 [3]	IC50 [4]	MIC [5]	MIC [6]
CC1(C)C(=O)CC[C@]2(C)C3=CC=C4[C@@H]5C[C@@](C)(C(=O)O)CC[C@]5(C)CC[C@@]4(C)[C@]3(C)CC[C@@H]12	6.25 µg/mL (≈ 13.8 µM)	> 100 µM	> 100 µM	> 30 µM	> 50 µg/mL	> 50 µg/mL
CC1(C)C(=O)CC[C@]2(C)[C@H]3[C@H](O)C=C4[C@@H]5C[C@@](C)(C(=O)O)CC[C@]5(C)CC[C@@]4(C)[C@]3(C)CC[C@@H]12	> 6.26 µg/mL	3.2 µM	3.6 µM	> 1 µM	> 6.25 µg/mL	> 6.25 µg/mL
C=C(C)[C@@H]1CC[C@]2(C)[C@H](CC=C3[C@@H]4C[C@](C)(C(=O)O)CC[C@]4(C)CC[C@]32C)[C@@]1(C)CCC(=O)O	6.25 µg/mL (≈ 13.3 µM)	1.9 µM	0.5 µM	> 1 µM	> 3.25 µg/mL	> 6.25 µg/mL
CCO[C@@H]1C=C2[C@@H]3C[C@@](C)(C(=O)O)CC[C@]3(C)CC[C@@]2(C)[C@]2(C)CC[C@H]3C(C)(C)C(=O)CC[C@]3(C)[C@@H]12	12.5 µg/mL (≈ 25.1 µM)				> 12.5 µg/mL	50 µg/mL (≈ 100 µM)
C=C(C)[C@@H]1CC[C@]2(C)[C@H](CC=C3[C@@H]4C[C@@](C)(C(=O)O)CC[C@]4(C)CC[C@]32C)[C@@]1(C)CCC(=O)O [KOETJAPIC ACID]	6.25 µg/mL (≈ 13.3 µM)				> 6.25 µg/mL	12.5 µg/mL (≈ 26.6 µM)
CC1(C)C(=O)CC[C@]2(C)[C@H]3C(=O)C=C4[C@@H]5C[C@@](C)(C(=O)O)CC[C@]5(C)CC[C@@]4(C)[C@]3(C)CC[C@@H]12		6.7 µM	2.3 µM	> 10 µM		
CO[C@@H]1C=C2[C@@H]3C[C@@](C)(C(=O)O)CC[C@]3(C)CC[C@@]2(C)[C@]2(C)CC[C@H]3C(C)(C)C(=O)CC[C@]3(C)[C@@H]12	10 µg/mL (≈ 20.6 µM)	15 µM	5 µM	> 30 µM	> 10 µg/mL	> 10 µg/mL
